Data taken from ChEMBL document CHEMBL1201862, “PubChem BioAssay data set” (2004).
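Five concentrations, 48 hours, 96-well plates. GI50 marks 50% less growth.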 Activity calls are given as the source filed them. No stated cut-off is given here; in the data, active = GI50 up to about 1.1 µM and inactive = higher.

Experiments:
Assay in all cases: NCI-60 cell line screen, 48 h
NCI-H23 = tested on: NCI-H23
SF-268 = tested on: SF-268
K562 = tested on: K562
SW-620 = tested on: SW-620
UO-31 = tested on: UO-31
IGROV-1 = tested on: IGROV-1
HCT-15 = tested on: HCT-15
HOP-92 = tested on: HOP-92
SNB-19 = tested on: SNB-19
HOP-62 = tested on: HOP-62
UACC-62 = tested on: UACC-62
HT-29 = tested on: HT-29
BT-549 = tested on: BT-549
CAKI-1 = tested on: CAKI-1
U-251 = tested on: U-251
EKVX = tested on: EKVX
OVCAR-8 = tested on: OVCAR-8
A549 = tested on: A549
NCI-H522 = tested on: NCI-H522
Hs-578T = tested on: Hs-578T
786-0 = tested on: 786-0
NCI-H460 = tested on: NCI-H460
SN12C = tested on: SN12C
MCF7 = tested on: MCF7
SNB-75 = tested on: SNB-75
HL-60 = tested on: HL-60
SK-MEL-28 = tested on: SK-MEL-28
RPMI-8226 = tested on: RPMI-8226
SK-OV-3 = tested on: SK-OV-3
NCI/ADR-RES = tested on: NCI/ADR-RES
UACC-257 = tested on: UACC-257
PC-3 = tested on: PC-3
M14 = tested on: M14
LOX IMVI = tested on: LOX IMVI
HCC 2998 = tested on: HCC 2998
MOLT-4 = tested on: MOLT-4
TK-10 = tested on: TK-10
SR = tested on: SR
COLO 205 = tested on: COLO 205
RXF 393 = tested on: RXF 393
A498 = tested on: A498
SK-MEL-5 = tested on: SK-MEL-5
DU-145 = tested on: DU-145
Malme-3M = tested on: Malme-3M
SF-539 = tested on: SF-539
OVCAR-3 = tested on: OVCAR-3
CCRF-CEM = tested on: CCRF-CEM
MDA-MB-435 = tested on: MDA-MB-435
SF-295 = tested on: SF-295
OVCAR-5 = tested on: OVCAR-5
MDA-N = tested on: MDA-N
OVCAR-4 = tested on: OVCAR-4
T47D = tested on: T47D
SK-MEL-2 = tested on: SK-MEL-2
HCT-116 = tested on: HCT-116
KM12 = tested on: KM12
ACHN = tested on: ACHN
NCI-H226 = tested on: NCI-H226
MDA-MB-231 = tested on: MDA-MB-231

With `O=C(O)c1cc2c(cc1CC(Cc1ccc3c(c1)CCCC3)C(=O)O)CCCC2` (stereo not drawn) the GI50 (NCI-H23) was > 100 µM (inactive), the GI50 (SF-268) was 39.4 µM (inactive) and the GI50 (K562) was > 100 µM (inactive). For the same compound, the GI50 (SW-620) was > 100 µM (inactive), the GI50 (UO-31) was > 100 µM (inactive) and the GI50 (IGROV-1) was > 100 µM (inactive). The GI50 (HCT-15) was 64.4 µM, the GI50 (HOP-92) was 83 µM (inactive) and the GI50 (SNB-19) was 60 µM (inactive). The GI50 (HOP-62) was > 100 µM (inactive), the GI50 (UACC-62) was > 100 µM (inactive) and the GI50 (HT-29) was > 100 µM (inactive). For the same compound, the GI50 (BT-549) was 59.2 µM (inactive), the GI50 (CAKI-1) was > 100 µM (inactive) and the GI50 (U-251) was > 100 µM (inactive). The GI50 (EKVX) was 56 µM (inactive), the GI50 (OVCAR-8) was > 100 µM (inactive) and the GI50 (A549) was > 100 µM (inactive). For the same compound, the GI50 (NCI-H522) was 31.2 µM (inactive), the GI50 (Hs-578T) was 90.6 µM (inactive) and the GI50 (786-0) was > 100 µM (inactive). For the same compound, the GI50 (NCI-H460) was > 100 µM (inactive), the GI50 (SN12C) was > 100 µM (inactive) and the GI50 (MCF7) was 38.2 µM (inactive). For the same compound, the GI50 (SNB-75) was > 100 µM (inactive), the GI50 (HL-60) was 99.8 µM (inactive) and the GI50 (SK-MEL-28) was > 100 µM (inactive). For the same compound, the GI50 (RPMI-8226) was 63.2 µM (inactive), the GI50 (SK-OV-3) was > 100 µM (inactive) and the GI50 (NCI/ADR-RES) was 32.8 µM (inactive). For the same compound, the GI50 (UACC-257) was 44.6 µM (inactive), the GI50 (PC-3) was > 100 µM (inactive) and the GI50 (M14) was > 100 µM (inactive). The GI50 (LOX IMVI) was 94.4 µM (inactive), the GI50 (HCC 2998) was 32.9 µM (inactive) and the GI50 (MOLT-4) was 59.8 µM (inactive). For the same compound, the GI50 (TK-10) was > 100 µM (inactive), the GI50 (SR) was > 100 µM (inactive) and the GI50 (COLO 205) was > 100 µM (inactive). For the same compound, the GI50 (RXF 393) was 41.5 µM (inactive), the GI50 (A498) was > 100 µM (inactive) and the GI50 (SK-MEL-5) was > 100 µM (inactive). For the same compound, the GI50 (DU-145) was > 100 µM (inactive), the GI50 (Malme-3M) was > 100 µM (inactive) and the GI50 (SF-539) was 34.4 µM (inactive). The GI50 (OVCAR-3) was > 100 µM (inactive), the GI50 (CCRF-CEM) was 67.5 µM (inactive) and the GI50 (MDA-MB-435) was > 100 µM (inactive). The GI50 (SF-295) was > 100 µM (inactive), the GI50 (OVCAR-5) was > 100 µM (inactive) and the GI50 (MDA-N) was > 100 µM (inactive). The GI50 (OVCAR-4) was < 0.01 µM (active), the GI50 (T47D) was 88.1 µM (inactive) and the GI50 (SK-MEL-2) was > 100 µM (inactive). The GI50 (HCT-116) was > 100 µM (inactive), the GI50 (KM12) was > 100 µM (inactive) and the GI50 (ACHN) was 56.5 µM (inactive). The GI50 (NCI-H226) was 54.3 µM (inactive) and the GI50 (MDA-MB-231) was > 100 µM (inactive).

With `O=[N+]([O-])c1cc(/C=N/C23CC4CC(CC(C4)C2)C3)ccc1Cl` the GI50 (NCI-H23) was 19.1 µM (inactive), the GI50 (SF-268) was 28.7 µM (inactive) and the GI50 (K562) was 4.42 µM (inactive). The GI50 (SW-620) was 13 µM (inactive), the GI50 (UO-31) was 7.52 µM (inactive) and the GI50 (IGROV-1) was 23.6 µM (inactive). The GI50 (HCT-15) was 22.6 µM, the GI50 (HOP-92) was 34.5 µM (inactive) and the GI50 (SNB-19) was 28.6 µM (inactive). For the same compound, the GI50 (HOP-62) was 4 µM (inactive), the GI50 (UACC-62) was 14.3 µM (inactive) and the GI50 (HT-29) was 19.1 µM (inactive). The GI50 (BT-549) was 21 µM (inactive), the GI50 (CAKI-1) was 6.71 µM (inactive) and the GI50 (U-251) was 18.7 µM (inactive). For the same compound, the GI50 (EKVX) was 29.9 µM (inactive), the GI50 (OVCAR-8) was 25.1 µM (inactive) and the GI50 (A549) was > 100 µM (inactive). The GI50 (NCI-H522) was 13.4 µM (inactive), the GI50 (Hs-578T) was 38.8 µM (inactive) and the GI50 (786-0) was 19.8 µM (inactive). For the same compound, the GI50 (NCI-H460) was 31.8 µM (inactive), the GI50 (SN12C) was 15.9 µM (inactive) and the GI50 (MCF7) was 9.02 µM (inactive). For the same compound, the GI50 (SNB-75) was 36.2 µM (inactive), the GI50 (HL-60) was 3.03 µM (inactive) and the GI50 (SK-MEL-28) was 18.1 µM (inactive). For the same compound, the GI50 (RPMI-8226) was 4.31 µM (inactive), the GI50 (SK-OV-3) was 18.4 µM (inactive) and the GI50 (NCI/ADR-RES) was 26.3 µM (inactive). The GI50 (UACC-257) was 20.7 µM (inactive), the GI50 (PC-3) was 19.8 µM (inactive) and the GI50 (M14) was 12.3 µM (inactive). For the same compound, the GI50 (LOX IMVI) was 19 µM (inactive), the GI50 (HCC 2998) was 30.5 µM (inactive) and the GI50 (MOLT-4) was 8.73 µM (inactive). The GI50 (TK-10) was 29.7 µM (inactive), the GI50 (SR) was 4.37 µM (inactive) and the GI50 (COLO 205) was 42.6 µM (inactive). The GI50 (RXF 393) was 19.2 µM (inactive), the GI50 (A498) was > 100 µM (inactive) and the GI50 (SK-MEL-5) was 21.5 µM (inactive). The GI50 (DU-145) was 27.8 µM (inactive), the GI50 (Malme-3M) was 20.9 µM (inactive) and the GI50 (SF-539) was 22.9 µM (inactive). For the same compound, the GI50 (OVCAR-3) was 17.9 µM (inactive), the GI50 (CCRF-CEM) was 2.82 µM (inactive) and the GI50 (MDA-MB-435) was 16.5 µM (inactive). The GI50 (SF-295) was 37.9 µM (inactive), the GI50 (OVCAR-5) was 34 µM (inactive) and the GI50 (MDA-N) was 8.02 µM (inactive). For the same compound, the GI50 (OVCAR-4) was 19.5 µM (inactive), the GI50 (T47D) was 18.2 µM (inactive) and the GI50 (SK-MEL-2) was 20.5 µM (inactive). The GI50 (HCT-116) was 3.94 µM (inactive), the GI50 (KM12) was 17.1 µM (inactive) and the GI50 (ACHN) was 24 µM (inactive). The GI50 (NCI-H226) was 51.1 µM (inactive) and the GI50 (MDA-MB-231) was 11.7 µM (inactive).
